Values of other authors as cited in patent US11679093B2, “2-naphthimidamides, analogues thereof, and methods of treatment using same” (priority 2018, dated 2023).

System: Influenza A virus (IAV)
Settings: fully differentiated mucociliated bronchiolar epithelium isolated from multiple human donors

In the case of `N=C(N)Nc1ccc(C(=O)Oc2ccc3cc(C(=N)N)ccc3c2)cc1` [Nafamostat, 6-carbamimidoylnaphthalen-2-yl 4-guanidinobenzoate], the antiviral activity is listed as “exhibit antiviral activity”.
